Blank lines part the entries; values can stand above or below the compound they belong to.
Assays:
rat D2L receptor = rat D2L receptor (Rattus norvegicus, UniProt P61169); format: binding
α-syn = α-syn (Homo sapiens, UniProt P37840); experiment: ThT assay of α-syn aggregation induced by seeding with 0.5% PFFs; format: biochemical; conditions: 1.25 mg/mL α-syn + 0.5% PFFs, 30D without shaking, drug 172.9 μM
PC12 cells = experiment: MTT viability of PC12 cells treated with α-syn seeded samples; format: cell-based; conditions: samples collected at 0D; drug 20 μM, 24 h
human D2 receptor [1] = molecular target: T1, human D2 receptor (Homo sapiens, UniProt P14416)
T1 sequence (P14416 whole entry): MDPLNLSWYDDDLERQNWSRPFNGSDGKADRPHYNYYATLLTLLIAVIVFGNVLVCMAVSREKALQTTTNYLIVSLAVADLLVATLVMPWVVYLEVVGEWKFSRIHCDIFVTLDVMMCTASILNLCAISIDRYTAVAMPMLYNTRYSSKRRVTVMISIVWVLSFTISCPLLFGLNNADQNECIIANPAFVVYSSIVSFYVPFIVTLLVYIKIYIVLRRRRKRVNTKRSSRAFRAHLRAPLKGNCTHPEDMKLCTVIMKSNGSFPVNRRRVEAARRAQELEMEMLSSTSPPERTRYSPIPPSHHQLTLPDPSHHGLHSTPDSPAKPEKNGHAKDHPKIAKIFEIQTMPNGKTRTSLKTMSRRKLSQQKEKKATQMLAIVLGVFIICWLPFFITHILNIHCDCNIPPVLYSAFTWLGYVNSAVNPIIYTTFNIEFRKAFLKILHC

human D2 receptor [2] = molecular target: T1, human D2 receptor; conditions: [35S]GTPγS, D2 receptors

Chain of rat D2L receptor (P61169 whole entry): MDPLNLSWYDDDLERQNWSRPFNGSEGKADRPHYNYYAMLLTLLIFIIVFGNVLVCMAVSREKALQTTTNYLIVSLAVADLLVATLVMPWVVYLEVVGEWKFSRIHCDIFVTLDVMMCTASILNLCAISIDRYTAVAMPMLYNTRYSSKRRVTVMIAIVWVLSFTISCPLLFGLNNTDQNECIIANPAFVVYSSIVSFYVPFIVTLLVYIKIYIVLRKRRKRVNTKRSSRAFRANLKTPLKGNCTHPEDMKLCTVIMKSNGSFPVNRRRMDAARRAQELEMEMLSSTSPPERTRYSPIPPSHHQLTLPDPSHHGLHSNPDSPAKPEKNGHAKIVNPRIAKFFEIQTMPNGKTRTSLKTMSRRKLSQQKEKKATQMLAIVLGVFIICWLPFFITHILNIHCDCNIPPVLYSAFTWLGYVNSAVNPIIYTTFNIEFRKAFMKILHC

SMILES: CCCN(CC(=O)N1CCN(C(=O)CN(CCC)[C@H]2CCc3c(O)cccc3C2)CC1)[C@H]1CCc2c(O)cccc2C1 [Compound D-380, (s)-1,1’-(piperazine-1,4-diyl)bis(2-(((s)-5-hydroxy-1,2,3,4-tetrahydronaphthalen-2-yl)(propyl)amino)ethanone)]
Activity at DA receptors (binding, in words) (rat D2L receptor; D2/D3 receptor binding): little to no activity
Inhibition of [3H]spiroperidol binding, D2L (rat D2L receptor; at 100 μM, cloned rat D2L in HEK-293 cells): No Inhibition at 100 μM

SMILES: CCCN(CCc1ccc(CCN(CCC)[C@H]2CCc3c(O)cccc3C2)cc1)[C@H]1CCc2c(O)cccc2C1 [Compound D-382, (6s,6’s)-6,6’-(2,2’-(1,4-phenylene)bis(ethane-2,1-diyl))bis(propylazanediyl)bis(5,6,7,8-tetrahydronaphthalen-1-ol)]
Increase in affinity for D2 receptors compared to D-381 (rat D2L receptor; binding, D2 receptors): greater than threefold increase

SMILES: Br.Br.CCCN(CCc1cc(O)c(CCN(CCC)[C@H]2CCc3c(O)cccc3C2)cc1O)[C@H]1CCc2c(O)cccc2C1 [Compound D-666, 2,5-Bis(2-(((S)-5-hydroxy-1,2,3,4-tetrahydronaphthalen-2-yl)(propyl)amino)ethyl)benzene-1,4-diol]
Inhibition of α-syn aggregation (ThT signal) (α-syn): inhibited the aggregation completely
Toxicity of compound by itself (PC12 viability, MTT) (PC12 cells): do not see such toxicity

SMILES: CCCN(CCC)C1CCc2c(O)cccc2C1 (single isomer, unassigned; (-)) [(−)-5-OH-DPAT, 5-OH-DPAT]
Emax (human D2 receptor [1]): 80 ± 4%

Inhibition of α-syn aggregation (ThT signal) (α-syn): inhibited the aggregation completely
D2 functional potency compared to pramipexole (human D2 receptor [2]): more than 7 fold
SMILES: CCCN(CCc1cc(O)c(CCN(CCC)[C@H]2CCc3nc(N)sc3C2)cc1O)[C@H]1CCc2nc(N)sc2C1 [Compound D-673, 2,5-bis(2-(((S)-2-amino-4,5,6,7-tetrahydrobenzo[d]thiazol-6-yl)(propyl)amino)-ethyl)benzene-1,4-diol]
Toxicity of compound by itself (PC12 viability, MTT) (PC12 cells): shows toxicity
